Test results from ChEMBL document CHEMBL1201862, “PubChem BioAssay data set” (2004).
Activity calls are given as the source filed them. Cut-off read from the data, not from the text of the source, for most assays here: actives have a measured EC50 and inactives only a lower limit.

Legend:
[1] = target: T1, Corticotropin-releasing factor receptor 2/Corticotropin-releasing factor-binding protein (Homo sapiens, UniProt P24387+Q13324); experiment: Dose Response confirmation of uHTS hits for small molecule antagonists of the CRF-binding protein and CRF-R2 receptor complex.; assay type: functional; settings: read-out: IC50_Mean
T1 sequence (Q13324 whole entry): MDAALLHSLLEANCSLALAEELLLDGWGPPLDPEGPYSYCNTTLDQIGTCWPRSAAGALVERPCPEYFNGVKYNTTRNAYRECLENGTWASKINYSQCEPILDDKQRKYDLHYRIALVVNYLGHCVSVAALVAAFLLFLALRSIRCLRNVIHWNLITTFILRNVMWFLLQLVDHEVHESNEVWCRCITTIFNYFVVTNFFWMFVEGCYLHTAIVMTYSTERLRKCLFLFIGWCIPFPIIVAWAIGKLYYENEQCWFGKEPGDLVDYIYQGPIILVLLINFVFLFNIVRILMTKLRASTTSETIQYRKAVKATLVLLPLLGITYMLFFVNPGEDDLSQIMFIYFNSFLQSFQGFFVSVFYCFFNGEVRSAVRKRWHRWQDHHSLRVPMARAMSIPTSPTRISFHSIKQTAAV
T1 sequence (P24387 whole entry): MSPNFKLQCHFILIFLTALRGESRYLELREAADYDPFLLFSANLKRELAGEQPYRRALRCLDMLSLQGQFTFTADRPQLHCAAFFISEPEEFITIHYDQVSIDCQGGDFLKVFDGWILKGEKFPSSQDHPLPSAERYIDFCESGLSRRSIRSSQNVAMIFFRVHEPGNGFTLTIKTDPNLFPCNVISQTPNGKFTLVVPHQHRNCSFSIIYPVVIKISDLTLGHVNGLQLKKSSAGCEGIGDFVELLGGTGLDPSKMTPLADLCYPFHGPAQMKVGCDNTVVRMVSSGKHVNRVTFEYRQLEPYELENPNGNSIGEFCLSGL

[2] = target: T1, Corticotropin-releasing factor receptor 2/Corticotropin-releasing factor-binding protein; experiment: activators of CRF receptor 2 with binding protein – uHTS hits, confirmation (AID 602473); assay type: functional; settings: read-out: EC50_Mean
[3] = Luminescence Cell-Based Dose Response HTS to Identify Activators of Luciferase Translation or Activity in H4 […] Cells. [Related pubchem assays: 1829 (Project Summary), 1814 (Primary HTS)]; assay type: functional
H4 = experiment: Luminescence Cell-Based Dose Response HTS to Identify Activators of 5'UTR Stem-Loop Driven Prion Protein mRNA Translation in H4 Neuroglioblastoma Cells. [Related pubchem assays: 1829 (Project Summary), 1814 (Primary HTS)]; assay type: functional; settings: Homo sapiens
[4] = Luminescence Cell-Based Dose Confirmation HTS to Identify Activators of 5'UTR Stem-Loop Driven Alpha-Synuclein mRNA Translation in H4 Neuroglioblastoma Cells. [Related pubchem assays: 1829 (Project Summary), 1814 (Primary HTS)]; assay type: functional
Streptococcus = experiment: Group A Streptococcus viability loss, dose response, counter-screen for streptokinase expression inhibitor project, luminescence, BacTiterGlo (AID 1915); assay type: functional, organism-based; settings: Streptococcus;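 note: potency for reduction of bacterial viability or growth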
[5] = test system: Streptococcus sp. 'group A'; experiment: growth inhibition of control SK(-) GAS strain, dose response, counter-screen for streptokinase expression inhibitor project, luminescence, kanamycin, BacTiterGlo, confirmation (AID 1900); assay type: functional, organism-based; settings: Streptococcus sp. 'group A'
Streptokinase A = target: T2, Streptokinase A (Streptococcus pyogenes serotype M1, UniProt P10520); experiment: S. pyogenes streptokinase expression inhibitors, potency, dose response, plasminogen activation absorbance, OD405 (AID 1914); assay type: functional, Streptococcus pyogenes M1 GAS;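 note: secreted streptokinase activity via plasminogen activation per viability signal from cell pellet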
T2 sequence (P10520 whole entry): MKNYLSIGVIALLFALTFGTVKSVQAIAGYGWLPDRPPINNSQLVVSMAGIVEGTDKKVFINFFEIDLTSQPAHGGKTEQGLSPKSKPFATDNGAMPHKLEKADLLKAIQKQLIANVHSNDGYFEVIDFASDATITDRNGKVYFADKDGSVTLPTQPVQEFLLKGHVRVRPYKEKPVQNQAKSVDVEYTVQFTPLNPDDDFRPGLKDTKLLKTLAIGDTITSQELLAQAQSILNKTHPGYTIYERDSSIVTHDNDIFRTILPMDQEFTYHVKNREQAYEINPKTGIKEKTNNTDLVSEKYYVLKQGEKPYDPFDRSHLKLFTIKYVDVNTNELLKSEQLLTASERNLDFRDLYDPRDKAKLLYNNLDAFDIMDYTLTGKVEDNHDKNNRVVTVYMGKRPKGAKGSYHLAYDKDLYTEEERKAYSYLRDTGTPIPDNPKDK

[6] = NIH-3T3 fibroblast cytotoxicity, dose response, cytotoxicity control, cell-based, fluorescence, Alamar Blue, secondary assay (AID 2327); assay type: functional;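 note: NIH-3T3 mouse fibroblasts cultured with fluconazole at 8 µg/mL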
[7] = C. albicans growth with fluconazole, confirmation, fluorescence, retest (AID 2467); assay type: functional, cell-based
Cytochrome P450 1A2 = target: T3, Cytochrome P450 1A2 (Homo sapiens, UniProt P05177);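 note: PubChem cytochrome P450 panel assay, CYP1A2 panel member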
T3 sequence (P05177 whole entry): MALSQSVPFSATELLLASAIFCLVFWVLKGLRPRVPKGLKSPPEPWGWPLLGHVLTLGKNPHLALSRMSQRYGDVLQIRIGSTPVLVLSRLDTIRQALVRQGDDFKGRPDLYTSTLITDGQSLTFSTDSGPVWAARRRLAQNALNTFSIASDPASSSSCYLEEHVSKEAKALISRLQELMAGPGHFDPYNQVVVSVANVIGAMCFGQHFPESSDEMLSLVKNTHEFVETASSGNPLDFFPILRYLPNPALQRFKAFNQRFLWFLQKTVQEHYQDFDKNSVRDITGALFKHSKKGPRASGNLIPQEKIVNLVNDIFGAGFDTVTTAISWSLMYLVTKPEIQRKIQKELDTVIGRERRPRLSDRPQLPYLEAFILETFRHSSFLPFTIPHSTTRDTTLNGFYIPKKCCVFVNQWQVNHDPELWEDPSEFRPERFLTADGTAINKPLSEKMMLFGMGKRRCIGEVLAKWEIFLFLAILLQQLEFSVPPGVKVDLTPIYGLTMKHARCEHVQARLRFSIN

Cytochrome P450 2D6 = Cytochrome P450 2D6 (Homo sapiens, UniProt P10635);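 note: CYP2D6 member of a cytochrome P450 panel assay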
Cytochrome P450 2D6, sequence (P10635 whole entry): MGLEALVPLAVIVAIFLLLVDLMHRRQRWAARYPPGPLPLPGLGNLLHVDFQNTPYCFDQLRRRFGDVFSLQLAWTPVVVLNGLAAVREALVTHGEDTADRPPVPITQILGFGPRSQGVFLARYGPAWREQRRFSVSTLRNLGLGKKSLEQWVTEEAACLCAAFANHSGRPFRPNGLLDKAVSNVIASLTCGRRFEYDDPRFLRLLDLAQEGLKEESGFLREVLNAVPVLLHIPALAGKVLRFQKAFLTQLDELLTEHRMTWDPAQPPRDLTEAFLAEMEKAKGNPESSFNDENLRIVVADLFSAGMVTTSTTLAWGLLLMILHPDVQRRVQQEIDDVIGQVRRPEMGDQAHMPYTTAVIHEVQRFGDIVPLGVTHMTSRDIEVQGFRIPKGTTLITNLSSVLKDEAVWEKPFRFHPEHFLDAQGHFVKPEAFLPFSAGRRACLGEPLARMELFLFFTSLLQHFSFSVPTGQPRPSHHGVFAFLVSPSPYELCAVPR

Structure (SMILES) | IC50 [1] | EC50 [2] | EC50 [3] | EC50 [4] | other results
CCCCC(C(=O)O)C(C)CC(=O)Nc1nncs1 (configuration not stated) | > 47.1 µM (inactive) | > 53 µM (inactive) |  |  | 
O=C(NCCSc1ccccc1)c1cncc(Br)c1 |  |  | 5.57 µM (active) | 30.1 µM (active) | EC50 (H4): 9.26 µM (active)
N#C/C(=C\c1ccc(Cl)cc1)c1nc2ccc[nH]c-2n1 |  |  | 14 µM (active) | > 120 µM (not active) | EC50 (H4): 44 µM (active)
CSc1nnc2c(n1)c(C)nn2-c1ccc(C)cc1 |  |  | 16.1 µM (active) | 0.114 µM (active) | EC50 (H4): 4.22 µM (active)
CCCCc1c(C)nn(-c2nnc3c4ccccc4n(C)c3n2)c1C |  |  | 5.26 µM (active) | > 120 µM (not active) | EC50 (H4): 15.8 µM (active)
Cc1cccc(NC2=NN=C(c3c(C)[nH]c4ccccc34)CS2)c1 |  |  |  |  | EC50 (Streptococcus): 6.58 µM (active); EC50 [5]: 3.91 µM (active); EC50 (Streptokinase A): > 150 µM (not active)
Cc1ccc2occ(/C=N/NC(=O)c3ccccc3O)c(=O)c2c1 |  |  |  |  | EC50 [6]: > 150 µM (inconclusive); EC50 [7]: > 38 µM (not active)
CSc1ccc(C2c3[nH]c4ccccc4c3CCN2C(=O)c2ccnn2C)cc1 (configuration not stated) |  |  |  |  | EC50 [6]: > 150 µM (inactive); EC50 [7]: 2.7 µM (active)
O=c1c2ccccc2nc(-c2ccco2)n1Cc1ccccc1 |  |  | 8.08 µM (active) | 34.1 µM (active) | 
O=[N+]([O-])c1cccc(-c2nc(-c3ccccn3)no2)c1 | > 47.1 µM (inactive) | > 53 µM (inactive) |  |  | 
O=C(NCCN1CCN(C(=O)NC2CCCCC2)CC1)NC1CCCCC1 | > 47.1 µM (inactive) | > 53 µM (inactive) |  |  | 
CCOC(=O)c1sc2ncnc(NCC(c3cccs3)N(C)C)c2c1C (configuration not stated) |  |  |  |  | EC50 (Streptococcus): 50.8 µM (active); EC50 [5]: 7.15 µM (active); EC50 (Streptokinase A): > 150 µM (not active)
COc1ccc(Nc2nc(NN)nc(Nc3ccc(OC)cc3)n2)cc1 |  |  |  |  | EC50 (Streptococcus): > 150 µM (not active); EC50 [5]: 11.3 µM (active); EC50 (Streptokinase A): > 150 µM (not active)
CCC1SC(NC(=O)NC2CCCCC2)=NC1=O (configuration not stated) |  |  | 27.5 µM (active) | 15.8 µM (active) | EC50 (H4): 0.115 µM (active)
O=C(NC1CCCC1)C1CCC(CNS(=O)(=O)c2ccc(F)cc2)CC1 (configuration not stated) | > 47.1 µM (inactive) | > 53 µM (inactive) |  |  | 
CCOc1ccccc1/C=C(/NC(=O)c1ccccc1)C(=O)NC(C)c1ccccc1 (configuration not stated) | > 47.1 µM (inactive) | > 53 µM (inactive) |  |  | 
O=C(Nc1ccc(S(=O)(=O)N2CCOCC2)cc1)c1ccc(Cl)c([N+](=O)[O-])c1 | > 47.1 µM (inactive) | > 53 µM (inactive) |  |  | 
CCS(=O)(=O)c1ccc(C(=O)Nc2ccccc2)c(Cl)c1Cl |  |  |  |  | AC50 (Cytochrome P450 1A2): 14.1 µM (inconclusive); AC50 (Cytochrome P450 2D6): 31.6 µM (inconclusive)
COc1ccc(OC)c(NC(=O)NC2CCCc3ccccc32)c1 (configuration not stated) |  |  |  |  | EC50 (Streptococcus): > 150 µM (not active); EC50 [5]: > 150 µM (not active); EC50 (Streptokinase A): > 150 µM (not active)
